The test system of data set [1] is U-87 MG. Description: Antiproliferative activity against human U87 cells overexpressing EGFR variant III measured after 7 days by CCK8 assay. The class given is functional, cell-based, U-87MG ATCC.
The nature of data set [2]: Effect on serum triglyceride level in Balb/c nu/nu mouse xenografted with human U87 cells overexpressing EGFR variant III at 50 mg/kg/day, ip for 15 days. The class given is ADME, organism-based. To be noted: in vivo, 360 h, time 15 day. In general terms: Xenograft models place foreign cells or tissue in a host animal.
Data set [3] addresses Retinoic acid receptor RXR-alpha/oxysterols receptor LXR-beta (Homo sapiens, UniProt P55055).
Description: Agonist activity at human RXRalpha/LXRbeta expressed in HEK293 cells measured after 20 hrs by dual luciferase reporter gene assay
In data set [4] the test system is U-251. Description: Antiproliferative activity against human U-251 cells measured after 7 days by CCK8 assay. To be noted: U-251, 168 h. Background: Formazan colour is commonly taken as a measure of viable cells.
For data set [5], the system named is A 172. Description: Antiproliferative activity against human A 172 cells measured after 7 days by CCK8 assay. The settings on record: A 172, 168 h.
Data set [6] deals with Retinoic acid receptor RXR-alpha/oxysterols receptor LXR-alpha (Homo sapiens, UniProt Q13133).
Description: Agonist activity at human RXRalpha/LXRalpha expressed in HEK293 cells measured after 20 hrs by dual luciferase reporter gene assay
The test system of data set [7] is U87. Description: Agonist activity at LXR in human U87 cells overexpressing EGFR variant III assessed as up regulation of IDOL mRNA expression measured after 48 hrs by SYBR green staining based qRT-PCR analysis. In kind it is cell-based. To be noted: filed as agonist. On the technique in general: Real-time PCR tracks product formation cycle by cycle.
The subject of data set [8] is U87. Put plainly: Agonist activity at LXR in human U87 cells overexpressing EGFR variant III assessed as up regulation of ABCG1 mRNA expression measured after 48 hrs by SYBR green staining based qRT-PCR analysis. The class given is cell-based. The settings on record: filed as agonist.
The nature of data set [9]: Cytotoxicity against human HA1800 cells measured after 7 days by CCK8 assay. The class given is cell-based. To be noted: ha1800, 168 h, time 7 day.
The test system of data set [10] is HEK-293T. Put plainly: Cytotoxicity against HEK293T cells measured after 7 days by CCK8 assay. The settings on record: human, 168 h, time 7 day. In kind it is cell-based.
For data set [11], the system named is U-87 MG. Description: Antiproliferative activity against LXRbeta knock-down human U87 cells overexpressing EGFR variant III measured after 7 days by CCK8 assay. In kind it is functional, cell-based. To be noted: U-87MG ATCC, time 7.0 day.
Data set [12] deals with U87. Description: Agonist activity at LXR in human U87 cells overexpressing EGFR variant III assessed as up regulation of ABCA1 mRNA expression measured after 48 hrs by SYBR green staining based qRT-PCR analysis. The class given is cell-based. To be noted: filed as agonist.
The subject of data set [13] is U87. Description: Agonist activity at LXR in human U87 cells overexpressing EGFR variant III assessed as up regulation of SREBP1c mRNA expression measured after 48 hrs by SYBR green staining based qRT-PCR analysis. The class given is cell-based. To be noted: filed as agonist.
The test system of data set [14] is U87. Description: Agonist activity at LXR in human U87 cells overexpressing EGFR variant III assessed as up regulation of APOE mRNA expression measured after 48 hrs by SYBR green staining based qRT-PCR analysis. In kind it is cell-based. The settings on record: filed as agonist.
The nature of data set [15]: MRT (infinity) in Sprague-Dawley rat at 10 mg/kg, iv measured after 24 hrs by LC-MS/MS analysis. The class given is ADME, organism-based. The settings on record: in vivo.
Data set [16] is described as follows: Half life in Sprague-Dawley rat at 10 mg/kg, iv measured after 24 hrs by LC-MS/MS analysis. To be noted: in vivo. In kind it is ADME, organism-based.
In data set [17] the test system is U-87 MG. Put plainly: Antitumor activity against human U87 cells overexpressing EGFR variant III xenografted in Balb/c nu/nu mouse assessed as reduction in tumor size at 50 mg/kg/day, ip for 15 days by caliper method. In kind it is functional, organism-based. To be noted: U-87MG ATCC, time 15.0 day.
A short description of data set [18]: Tmax in Sprague-Dawley rat at 10 mg/kg, iv measured after 24 hrs by LC-MS/MS analysis. The class given is ADME, organism-based. To be noted: in vivo.
Data set [19] can be described thus: AUC (0 to infinity) in Sprague-Dawley rat at 10 mg/kg, iv measured after 24 hrs by LC-MS/MS analysis. The class given is ADME, organism-based. The arrangement: route intravenous, dose 10 mg/kg, time 24 hrs. To be noted: in vivo.
The nature of data set [20]: Toxicity in Balb/c nu/nu mouse xenografted with human U87 cells overexpressing EGFR variant III assessed as body weight loss at 50 mg/kg/day, ip for 15 days. In kind it is organism-based. The settings on record: in vivo, 360 h, time 15 day.
Data set [21] is described as follows: AUC (0 to t) in Sprague-Dawley rat at 10 mg/kg, iv measured after 24 hrs by LC-MS/MS analysis. In kind it is ADME, organism-based. Details: route intravenous, time 24 hrs, dose 10 mg/kg. The settings on record: in vivo.
The nature of data set [22]: Cmax in Sprague-Dawley rat at 10 mg/kg, iv measured after 24 hrs by LC-MS/MS analysis. In kind it is ADME, organism-based. Details: route intravenous, time 24 hrs, dose 10 mg/kg. To be noted: in vivo.
Setting [23] is: Homo sapiens, U-87 MG, 168 h, read-out: IC50.

Calls of active or inactive are those of the source. The calls are words filed in the database; no cut-off is given here.

Retinoic acid receptor RXR-alpha/oxysterols receptor LXR-beta, sequence (P19793 whole entry): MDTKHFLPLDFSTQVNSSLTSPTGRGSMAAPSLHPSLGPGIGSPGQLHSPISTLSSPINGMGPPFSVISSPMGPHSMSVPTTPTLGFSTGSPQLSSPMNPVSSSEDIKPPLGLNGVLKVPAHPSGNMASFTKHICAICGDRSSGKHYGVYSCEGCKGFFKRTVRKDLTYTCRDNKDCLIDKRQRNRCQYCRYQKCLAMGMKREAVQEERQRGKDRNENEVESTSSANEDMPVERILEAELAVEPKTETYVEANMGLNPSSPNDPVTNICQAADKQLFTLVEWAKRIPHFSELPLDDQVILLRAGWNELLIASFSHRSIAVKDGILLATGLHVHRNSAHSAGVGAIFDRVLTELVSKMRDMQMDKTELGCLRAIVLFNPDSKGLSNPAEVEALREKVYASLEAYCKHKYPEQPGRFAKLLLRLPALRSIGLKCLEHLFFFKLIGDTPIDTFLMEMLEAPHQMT
Retinoic acid receptor RXR-alpha/oxysterols receptor LXR-beta, sequence (P55055 whole entry): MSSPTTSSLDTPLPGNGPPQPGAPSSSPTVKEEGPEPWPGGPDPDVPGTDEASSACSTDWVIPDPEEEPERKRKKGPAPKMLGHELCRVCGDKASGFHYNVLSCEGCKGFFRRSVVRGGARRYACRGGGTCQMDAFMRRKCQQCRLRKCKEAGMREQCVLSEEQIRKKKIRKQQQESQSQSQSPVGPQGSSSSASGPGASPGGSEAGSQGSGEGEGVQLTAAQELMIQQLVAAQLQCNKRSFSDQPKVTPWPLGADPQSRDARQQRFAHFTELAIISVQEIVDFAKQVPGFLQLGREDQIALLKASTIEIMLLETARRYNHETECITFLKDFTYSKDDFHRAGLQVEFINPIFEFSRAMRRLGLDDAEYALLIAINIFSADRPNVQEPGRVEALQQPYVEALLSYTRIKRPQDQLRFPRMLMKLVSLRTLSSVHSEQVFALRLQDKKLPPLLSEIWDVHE
Retinoic acid receptor RXR-alpha/oxysterols receptor LXR-alpha, sequence (P19793 whole entry): as the sequence (P19793 whole entry) above
Retinoic acid receptor RXR-alpha/oxysterols receptor LXR-alpha, sequence (Q13133 whole entry): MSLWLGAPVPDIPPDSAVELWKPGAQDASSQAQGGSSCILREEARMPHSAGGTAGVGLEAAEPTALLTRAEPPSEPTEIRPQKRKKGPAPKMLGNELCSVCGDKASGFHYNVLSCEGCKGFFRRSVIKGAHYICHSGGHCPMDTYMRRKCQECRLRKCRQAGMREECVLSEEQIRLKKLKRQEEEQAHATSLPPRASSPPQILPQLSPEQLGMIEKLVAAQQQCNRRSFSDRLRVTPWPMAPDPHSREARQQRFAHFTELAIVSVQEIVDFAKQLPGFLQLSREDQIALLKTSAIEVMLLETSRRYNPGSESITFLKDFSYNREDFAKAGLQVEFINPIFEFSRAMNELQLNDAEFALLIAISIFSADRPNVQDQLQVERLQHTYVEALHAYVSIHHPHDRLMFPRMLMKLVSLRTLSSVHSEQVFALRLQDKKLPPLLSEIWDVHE

What is called IC50 is the midpoint of a concentration-inhibition curve. On to `CC(C)(C)CC(=O)N1CCC2(C(=O)Nc3ccccc32)C1c1cccc(-c2ccc(CO)c(S(C)(=O)=O)c2)c1` (centres undefined), for which, in [1] (u-87mg atcc), the IC50 entry is reported as “Not Active”.

As for `CC(C)(C)OC(=O)N1CC[C@@]2(C(=O)Nc3ccccc32)[C@@H]1c1cccc(-c2ccccc2)c1`, the IC50 entry in data set [1] (u-87mg atcc) is listed as “Not Active”.

One may read the EC50 as the concentration at which the effect is half-maximal. A high value points to lower potency in that assay. As for `Fc1ccc(-c2c3cccc(C(F)(F)F)c3nn2Cc2ccc(F)cc2Cl)cc1` [LXR-623], the Activity result in data set [2] is “Toxic”. In addition, the EC50 in data set [3] amounted to 0.000212 µM; in data set [6], 0.000431 µM. In addition, the IC50 stood at 3.06 µM in [4], 8.3 µM in data set [5] and 6.14 µM in data set [1] (setting [23]).

Take `CC(C)(C)OC(=O)N1CCC2(C(=O)Nc3ccccc32)C1c1cccc(-c2ccc(CO)c(S(C)(=O)=O)c2)c1` (centres undefined): the IC50 in [1] (setting [23]) was 7.05 µM.

Turning to `CC(C)(C)OC(=O)N1CCC2(C(=O)Nc3ccccc32)C1c1cccc(-c2ccccc2)c1` (centres undefined), the IC50 in data set [1] (setting [23]) was determined as 22.6 µM.

On to `CC(C)(C)OC(=O)N1CC[C@]2(C(=O)Nc3ccccc32)[C@H]1c1cccc(-c2cccc(S(C)(=O)=O)c2)c1`, for which the IC50 result in data set [1] (u-87mg atcc) is “Not Active”.

As to `CC(C)(C)OC(=O)N1CC[C@@]2(C(=O)Nc3ccccc32)[C@@H]1c1cccc(-c2ccc(CO)c(S(C)(=O)=O)c2)c1`, the IC50 entry in [1] (u-87mg atcc) is on record as “Not Active”.

Consider `CC(C)(C)OC(=O)N1CC[C@]2(C(=O)Nc3ccccc32)[C@H]1c1cccc(-c2ccc(CO)c(S(C)(=O)=O)c2)c1`, for which the IC50 in data set [1] (setting [23]) came to 6.36 µM.

For the molecule `CC(C)(C)CC(=O)N1CC[C@]2(C(=O)Nc3ccccc32)[C@H]1c1cccc(-c2ccc(CO)c(S(C)(=O)=O)c2)c1`, the IC50 entry in data set [1] (u-87mg atcc) is reported as “Not Active”.

As to `CC(C)(C)OC(=O)N1CCC2(C(=O)Nc3ccccc32)C1c1cccc(-c2cc(F)c(CO)c(S(C)(=O)=O)c2)c1` (centres undefined), the IC50 in data set [1] (setting [23]) amounted to 8.49 µM.

On to `CC(C)(C)OC(=O)N1CC[C@@]2(C(=O)Nc3ccccc32)[C@@H]1c1cccc(Nc2ccc(CO)c(S(C)(=O)=O)c2)c1`, for which the IC50 result in [1] (u-87mg atcc) is on record as “Not Active”.

Turning to `O=C(O)Cc1cccc(OCCCN(Cc2cccc(C(F)(F)F)c2Cl)CC(c2ccccc2)c2ccccc2)c1`, in data set [2], the Activity entry was “Toxic”. The figures for the concentration for a half-maximal effect (EC50) in [3] and in [6] were 0.000228 µM and 0.000401 µM, respectively. Further, in data set [1] (setting [23]), the IC50 stood at 3.65 µM.

Take `CC(C)(C)OC(=O)N1CC[C@]2(C(=O)Nc3ccccc32)[C@H]1c1cccc(-c2cc(F)c(CO)c(S(C)(=O)=O)c2)c1`: in data set [1] (setting [23]), the IC50 came to 7.78 µM.

As to `CC(C)(C)OC(=O)N1CC[C@]2(C(=O)Nc3ccccc32)[C@H]1c1cccc(Nc2ccc(CO)c(S(C)(=O)=O)c2)c1`, the Activity result in [7] was “Dose-dependent effect”; in data set [8] it was “Dose-dependent effect”; in [9], “Non-Toxic”; in [10], “Non-Toxic”; in data set [12] it was “Dose-dependent effect”; in [13] it was “Dose-dependent effect”. Moreover, the Activity entry in data set [14] is “Dose-dependent effect”. Besides, the IC50 is 2.23 µM in data set [4], 6.03 µM in [5] and 1.78 µM in data set [1] (setting [23]). Besides, the outcome in data set [11] was inactive.

On to `COC(=O)c1ccc(-c2cccc(C3N(C(=O)OC(C)(C)C)CCC34C(=O)Nc3ccccc34)c2)cc1S(C)(=O)=O` (centres undefined), for which the IC50 in data set [1] (setting [23]) amounted to 13.3 µM.

For the molecule `COC(=O)c1ccc(-c2cccc([C@H]3N(C(=O)OC(C)(C)C)CC[C@]34C(=O)Nc3ccccc34)c2)cc1S(C)(=O)=O`, the IC50 in data set [1] (setting [23]) came out at 7.53 µM.

Consider `CC(C)(C)OC(=O)N1CC[C@@]2(C(=O)Nc3ccccc32)[C@@H]1c1cccc(-c2cc(F)c(CO)c(S(C)(=O)=O)c2)c1`, for which the IC50 entry in data set [1] (u-87mg atcc) is “Not Active”.

Take `CN(C)C(=O)c1ccc(-c2cccc([C@H]3N(C(=O)OC(C)(C)C)CC[C@]34C(=O)Nc3ccccc34)c2)cc1Cl`: in [1] (u-87mg atcc), the IC50 entry was “Not Active”.

Usually MRT inf stands for a mean duration of stay, worked out from the concentration-time curve. In general, half-life refers to how long it takes for the measured level to halve. Broadly, the Tmax is the time at which the peak concentration occurs. A word on the AUC(0-inf): it is total exposure, with the tail of the curve extrapolated. Low readings indicate low exposure, high ones high exposure. The term AUC(0-t) denotes the area under the concentration-time curve up to a stated or last time point. Low readings indicate less exposure, high ones more exposure. In general, Cmax refers to the highest concentration seen after dosing. Take `CC(C)(C)OC(=O)N1CCC2(C(=O)Nc3ccccc32)C1c1cccc(Nc2ccc(CO)c(S(C)(=O)=O)c2)c1` (racemic): the Activity result in data set [2] and in [20] was “Non-Toxic” each time. Also, the mean residence time MRT inf in data set [15] came to 3.48 h. Moreover, in [16], the half-life was 2.98 h. Also, in [17], the outcome was Active. Besides, in [18], the Tmax turned out to be 0.22 h. The AUC(0-inf) in [19] amounted to 1410 ng·h/mL. The same molecule returned an AUC(0-t) at 24 h in data set [21] of 1250 ng·h/mL. The molecule further had a Cmax in data set [22] of 1010 ng/mL. The IC50 in data set [1] (setting [23]) was 3.75 µM.

`CC(C)(C)OC(=O)N1CC[C@]2(C(=O)Nc3ccccc32)[C@H]1c1cccc(-c2ccc(CO)cc2)c1`: the IC50 result in data set [1] (u-87mg atcc) was “Not Active”.

Turning to `COC(=O)c1ccc(-c2cccc([C@@H]3N(C(=O)OC(C)(C)C)CC[C@@]34C(=O)Nc3ccccc34)c2)cc1S(C)(=O)=O`, the IC50 result in [1] (u-87mg atcc) was “Not Active”.

For `CC(C)(C)CC(=O)N1CC[C@@]2(C(=O)Nc3ccccc32)[C@@H]1c1cccc(-c2ccc(CO)c(S(C)(=O)=O)c2)c1`, the half-maximal inhibitory concentration (IC50) result in [1] (u-87mg atcc) was “Not Active”.

The values are drawn from ChEMBL document CHEMBL4680249, “Discovery of new LXRβ agonists as glioblastoma inhibitors” (Eur J Med Chem, 2020).
